For data set [1] the following is noted: depends on administration form and/or dosage; cited from earlier work.
The test system of data set [2] is platelet aggregation in whole blood. In words: Platelet aggregation in whole blood evaluated by Multiplate. In kind it is cell-based. The text has this:
FIG. 2: MultiPlate continuously records platelet aggregation. The increase of impedance by the attachment of platelets onto the Multiplate sensors is transformed to arbitrary aggregation units (AU) and plotted against time. […] Hereby, the effect on the endothelium of PGI2 can be employed in conjunction with treatment with antithrombotic agents such as Aspirin (ASA), platelet ADP—and a platelet inhibitor, such as GPIIb/IIIa receptor antagonists without increased risk of bleeding in this high-risk population. The term “Mulitplate” refers to an applied platelet aggregometer/platelet function analyzer utilizing the analysis of whole blood. Whole blood is the physiological environment where platelet function takes place in vivo, and the use of whole blood for in-vitro testing eliminates the need for time-consuming centrifugation steps required for Born aggregation measurements. The use of a small amount of whole blood (0.3 ml per test) allows the differentiated assessment of platelet function without drawing large amounts of blood (as required for analysis of Born aggregation) and facilitates the analysis of blood from children and also in experimental settings.

Another data set concerns thrombus formation. In words: Thrombus formation evaluated by viscoelastical haemostatic assay, thrombelastography (TEG). The class given is cell-based. The text has this: FIG. 1: Recording haemostatic activity using TEG assay. […] Hereby, the effect on the endothelium of PGI2 can be employed in conjunction with treatment with antithrombotic agents such as Aspirin (ASA), platelet ADP—and a platelet inhibitor, such as GPIIb/IIIa receptor antagonists without increased risk of bleeding in this high-risk population.

As for `CC#CCC(C)[C@H](O)/C=C/[C@@H]1[C@H]2c3cccc(CCCC(=O)O)c3O[C@H]2C[C@H]1O` (mixture of isomers) [Beraprost], in data set [1], the half time was 35 to 40 min. Turning to `CC#CCC(C)[C@H](O)/C=C/[C@@H]1[C@H]2C/C(=C/CCCC(=O)O)C[C@H]2C[C@H]1O` (some centres unmarked) [Iloprost], the half time in data set [1] is 20 to 30 min.

`CSCCNc1nc(SCCC(F)(F)F)nc2c1ncn2[C@@H]1O[C@H](COP(=O)(O)OP(=O)(O)C(Cl)(Cl)P(=O)(O)O)[C@@H](O)[C@H]1O` [cangrelor]: in data set [1], the half time was 3 to 5 min.

With `CCCCC[C@H](O)/C=C/[C@@H]1[C@H]2C/C(=C/CCCC(=O)O)O[C@H]2C[C@H]1O` [prostacyclin], in data set [2], the “effect on platelet aggregation in whole blood as evaluated by MULTIPLATE” value is reported as “does not affect platelet aggregation”. In addition, the “effect on thrombus formation as evaluated by viscoelastical haemostatic assays such as thrombelastography (TEG)” value in the data set on thrombus formation is “does not impair thrombus formation”.

The values are drawn from patent publication US20130040898A1, “METHODS OF TREATMENT OF PATIENTS AT INCREASED RISK OF DEVELOPMENT OF ISCHEMIC EVENTS AND COMPOUNDS HEREOF” (priority 2010, published 2013).
